# Assay results as given in patent publication US12055553B2, “Method for diagnosing risk for inflammatory disease through glycan profiling” (The Regents of the University of California, priority 2017, dated 2024).
# Tests used:
# [1] = system: Caco-2 cells; format: cell-based; conditions: for change in sialylated glycans / change in fucosylated glycans / fucosylation: fucose 25 mM, butyrate 10 mM; for decrease in sialylated glycans collectively / increase in fucosylated glycans collectively: GlcNAc 25 mM, cell line not given; for change in fucosylated glycans / fucosylation: acetate, lactate; for change in high mannose type glycans / decrease in fucosylated compounds: lactose 70 mg/L; for decrease in fucosylated compounds: high galactose
# Procedure: (§1) We examined whether supplementation of free monosacchaides derived from diet changes N-glycosylation outcomes on the intestinal cell-surface at concentrations relevant to physiological conditions. Changes in glycosylation were assessed by globally releasing glycans from membrane proteins extracted from fully differentiated (Caco-2) and partially differentiated (HT-29) intestinal epithelial cells and analyzing the mixture by porous graphitized carbon (PGC)-LC-MS. […] The glycan profile under normal growth conditions was used as a frame of reference with which to compare the glycome at varied environments.
# (§2) Human colorectal adenocarcinoma Caco-2 cells derived from a person, were obtained from American Type Culture Collection (ATCC, VA) and grown in Eagle's Minimum Essential Medium (EMEM) supplemented with non-essential amino acids, 2 mM L-glutamine, 10% (v/v) fetal bovine serum (Life Technologies, NY), 1 mM sodium pyruvate, 1.5 g/L sodium bicarbonate, 100 U/mL penicillin, and 100 μg/mL streptomycin. Alternatively, Caco-2 cells were grown in Dulbecco's Modified Eagle's Medium (DMEM) supplemented with 10% (v/v) fetal bovine serum, 100 U/mL penicillin, and 100 μg/mL streptomycin. Human colorectal adenocarcinoma HT-29 cells, derived from a person, were obtained from ATCC and grown in McCoy's 5A medium supplemented with 10% (v/v) fetal bovine serum, 100 U/mL penicillin, and 100 μg/mL streptomycin. Cells were subcultured at 80% confluency and maintained at 37° C. in a humidified incubator with 5% CO=2. All treatments were added to the media after cell differentiation. Caco-2 cells were fully differentiated 14-days post-confluency. HT-29 cells were partially differentiated 4-days post-confluency. After 72 h, cells were collected in biological triplicates by scraping A fixed count of 2×10^6 viable cells was used for each experiment Passage number between experiments was controlled to no higher than P40 and a delta P of no more than 20. High passage cells were scraped after P80. Media was renewed three times a week unless specified. Monolayer integrity and quality of cell borders were evaluated under the microscope routinely during growth and before harvest.
# (§3) In brief harvested cells were resuspended in homogenization buffer containing 0.25 M sucrose, 20 mM HEPES-KOH (pH 7.4), and 1:100 protease inhibitor (EMD Millipore, CA). Cell lysis was performed on ice using a probe sonicator (Qsonica, CT) with five alternating and on and off pulses in 5 and 10 s intervals, respectively. Lysates were […] at 2,000×g for 10 min to remove the nuclear fraction and cellular debris. The supernatant was collected and brought to 1 mL with homogenization buffer for ultracentrifugation at 200,000×g for 45 min at 4° C. The pallet was resuspended and repelleted by ultracentrifugation in 0.2 M Na2CO3 (pH 11) followed by water to fragment the endoplasmic reticulum and remove the cytoplasmic fraction, respectively. The resulting membrane faction was isolated and stored at −20° C. until further processing.
# (§4) Membrane pellets were resuspended with 100 μL of 100 mM ammonium bicarbonate in 5 mM dithiothreitol and heated for 10 s at 100° C. to thermally denature the proteins. […] After addition of 400 μL of chilled ethanol, samples were placed in −80° C. for 1.5 h and centrifuged for 20 min at 21,130×g to precipitate residual deglycosylated proteins. The supernatant containing the released N-glycans was collected and dried. N-Glycans were purified by solid phase extraction containing a porous graphitized carbon (PGC) matrix. Eluted fractions were dried in vacuo.
# [2] = system: THP-1 cells; assay: Lectin array of THP-1 monocyte cell surface glycan composition after monosaccharide supplementation; format: cell-based; conditions: 3 days
# Procedure: THP-1 cells (monocyte cell line) were incubated with different sugars (i.e. monosaccharides) for 3 days. Lectin arrays were used to detect changes in the cell surface glycan composition. Secreted HDL from the cell supernatant (monocytes secrete their own HDL) was isolated and then analyzed to determine the glycan composition.
# • ConA (Concanavalin A): binds internal and nonreducing terminal α-D-mannosyl (αMan) and α-D-glucosyl groups (αGIc) • JAC (Jacalin): binds galactose-containing O-glycoproteins (Galβ3GalNac) • SNA (Sambucus nigra): binds sialic acid attached to terminal galactose in α-2,6 and to a lesser degree, α-2,3 linkage (Neu5Acα6Gal/GalNac) • AAL (Aleuria auanda lectin): binds fucose linked (α-1,6) to N-acetylglucosamine or to fucose linked (α-1,3) to N-acetyllactosamine related structures, exposed core (α-1, 6) and outer arm (α-1, 2 or α-1, 3) linked fucose moieties. Sugar Treatments: • L-fucose: Tested 2 doses: 300 umol/L (physiologic) and 100 mmol/L. (Marquardt T, Blood, December 15; 94(12):3976-85, 1999): Named L-Fuc Low and L-Fuc High • Fructose: Tested 2 doses: 27 mmol/L (physiologic) and 100 mmol/L. (Hui H, Pancreas, August 38(6): 706-12, 2009); Named Fruc Low and Fruc High • N-acetylglucosamine (GlcNAc): Tested 1 dose: 100 mmol/L. (Villiger TK, Controlling the time evolution of mAb N-finked glycosylation, Part I: Microbioreactor experiments, Biotechnol Prog, September; 32(5):1123-1134, 2016) • Galactose: The two doses for the galactose treatment in the glycan array experiments were: 150 mmol/L and 75 mmol/L. (Villiger TK, Controlling the time evolution of mAb N-linked glycosylation, Part II: Model-based predictions, Biotechnol Prog, September; 32(5):135-1148, 2016)
# [3] = system: HT-29 cells; assay: Cell surface N-glycan profiling (PGC-LC-MS) of HT-29 after supplementation; format: cell-based, Human
# Procedure: as §1, §2, §3, §4
# [4] = Caco-2, 72 h, Ac5-Sia up to 10 mM, glutamine 10 mM
# [5] = single dose (GlcNAc 100 mmol/L) or dose not distinguished
# [6] = high dose (galactose 150 mmol/L, fructose 100 mmol/L, L-fucose 100 mmol/L)
# [7] = low dose (galactose 75 mmol/L, fructose 27 mmol/L, L-fucose 300 umol/L)
# [8] = Caco-2, 72 h, treated vs untreated, glutamine 10 mM
smiles,measurement,setting,value
"CC(=O)N[C@H]1[C@H]([C@H](OC(C)=O)[C@@H](COC(C)=O)OC(C)=O)OC(OC(C)=O)(C(=O)O)C[C@@H]1OC(C)=O (stereo partly shown) [Ac5-Sia, 2,4,7,8,9-penta-O-acetyl N-acetylneuraminic acid]",change in monofucosylated glycans,"[1]; Ac5-Sia up to 10 mM, 72 h",significant increases
same,change in sialylated glycans,[1]; [4],remained relatively unchanged
"CC(=O)N[C@H]1C(O)O[C@H](CO)[C@H](O)[C@@H]1O (stereo partly shown) [GalNAc, N-acetylgalactosamine]",decrease in sialylated glycans collectively,"[1]; 72 h, GalNAc",31.9%
same,increase in fucosylated glycans collectively,"[1]; 72 h, GalNAc",120%
same,increase in abundance of non-decorated complex/hybrid type N-glycans,"[1]; Caco-2, 72 h, fructose 50 mM, GalNAc",234%
same,fold increase of Hex3HexNAc4Fuc1,"[1]; GalNAc supplementation, 72 h",13 fold
same,fold increase of Hex3HexNAc5Fuc1,"[1]; GalNAc supplementation, 72 h",7 fold
"CC(=O)N[C@H]1C(O)O[C@H](CO)[C@@H](O)[C@@H]1O (stereo partly shown) [GlcNAc, N-acetylglucosamine]",AAL binding (fucosylated glycans),[2]; [5],decreased
same,ConA binding (glucose or mannose-terminated glycans),[2]; [5],decreased
same,JAC binding (terminal galactose containing glycans),[2]; [5],decreased
same,SNA binding (terminal sialic acid),[2]; [5],did not change
same,decrease in sialylated glycans collectively,"[1]; 72 h, GalNAc",53.9%
same,increase in fucosylated glycans collectively,"[1]; 72 h, GalNAc",61.2%
CC(=O)O [acetate],change in fucosylated glycans / fucosylation,"[1]; Caco-2, 72 h, glutamine 10 mM",significant increase
same,fold decrease of Hex6HexNAc6Fuc1NeuAc3,"[1]; Caco-2, SCFA 10 mM, 72 h",4.7 fold
same,fold decrease of Hex7HexNAc7Fuc1NeuAc1,"[1]; Caco-2, SCFA 10 mM, 72 h",2.7 fold
same,fold increase of Hex6HexNAc6NeuAc1,"[1]; Caco-2, SCFA 10 mM, 72 h",8.1 fold
CCCC(=O)O [butyrate],"fold increase of each of Hex3HexNAc4Fuc1, Hex6HexNAc7Fuc1, Hex7HexNAc7Fuc1","[3]; HT-29, butyrate 10 mM, 72 h",more than 13 fold
same,increase in fucosylation,"[3]; HT-29, butyrate 10 mM, 72 h",262%
"C[C@H](O)[C@@H](O)[C@@H](O)[C@H](O)C=O [fucose, L-fucose]",AAL binding (fucosylated glycans),[2]; [6],decreased
same,ConA binding (glucose or mannose-terminated glycans),[2]; [6],decreased
same,JAC binding (terminal galactose containing glycans),[2]; [6],decreased
same,SNA binding (terminal sialic acid),[2]; [6],increased
same,AAL binding (fucosylated glycans),[2]; [7],decreased
same,ConA binding (glucose or mannose-terminated glycans),[2]; [7],decreased
same,JAC binding (terminal galactose containing glycans),[2]; [7],decreased
same,SNA binding (terminal sialic acid),[2]; [7],increased
same,change in sialylated glycans,[1]; [4],overall decrease
same,change in fucosylated glycans / fucosylation,"[1]; Caco-2, 72 h, glutamine 10 mM",neither the total levels nor the degree of fucosylation deviated significantly
O=C[C@H](O)[C@@H](O)[C@@H](O)[C@H](O)CO [galactose],AAL binding (fucosylated glycans),[2]; [6],increased
same,ConA binding (glucose or mannose-terminated glycans),[2]; [6],increased
same,JAC binding (terminal galactose containing glycans),[2]; [6],increased
same,SNA binding (terminal sialic acid),[2]; [6],increased
same,JAC binding (terminal galactose containing glycans),[2]; [7],decreased
same,SNA binding (terminal sialic acid),[2]; [7],increased
same,change in high mannose type glycans,[1]; [8],significant Increases
same,change in non-decorated complex/hybrid type N-glycans,"[1]; Caco-2, 72 h, glutamine 10 mM, galactose",significant Increases
same,decrease in fucosylated compounds,"[1]; Caco-2, 72 h",20%
same,decrease in relative abundances of fucosylated and sialylated glycans,"[1]; Caco-2, galactose-treated, 72 h",12-28%
same,afucosylated glycans as share of all complex/hybrid glycans,[1]; galactose-treated Caco-2 (untreated 15%),46%
same,asialylated glycans as share of all complex/hybrid glycans,[1]; galactose-treated Caco-2 (untreated 23%),58%
N[C@@H](CCC(=O)O)C(=O)O [glutamate],change in high mannose type glycans,"[3]; HT-29, 72 h, mannose, fructose 50 mM, glutamine 10 mM, glutamate 2 mM",unperturbed
same,decline in fucosylation with respect to the control,"[3]; HT-29, glutamate 2 mM, 72 h",44.4%
same,change in the groups of cell surface glycans presented,"[1]; Caco-2, 72 h, treated vs untreated, glucose 25 mM, glutamate 2 mM, glutathione 2 mM",relatively unaffected
OC[C@H]1O[C@@H](O[C@H]2[C@H](O)[C@@H](O)C(O)O[C@@H]2CO)[C@H](O)[C@@H](O)[C@H]1O (stereo partly shown) [lactose],change in high mannose type glycans,[1]; [8],did not cause dramatic changes
same,decrease in fucosylated compounds,"[1]; Caco-2, 72 h",20%
